# Data from patent publication US9340559B2, “Proteasome inhibitor delanzomib for use in the treatment of lupus” (Cephalon, Inc., priority 2011, dated 2016).
# Key:
# [1] = system: MRL/lpr mice; assay: Luminex analysis of serum cytokines (IL-12p40/p70, IL-1β, TNFα), MRL/lpr mice; assay type: in vivo, mouse
# Protocol: For the processing of serum samples for cytokine analysis, frozen plasma at −80° C. is thawed on ice, vortexed, and centrifuged for 10 minutes to remove debris and aggregates. A total of 25-50 μL of serum is used for Luminex® assays following the manufacturer's instructions. Ten different mouse cytokines are measured using the mouse cytokine 10-plex bead kit (Invitrogen, Carlsbad, Calif., no. LMC0001). Briefly, filter plates (Millipore, Billerica, Mass., no. MAIPSWU10), are pre-wet with 200 μL of wash solution (kit component) and 25 μL of beads are added per well. Serum samples are diluted and a total volume of 50 μL is added per well (ie, 25 μL of sample serum plus 25 μL of assay diluent as provided by the manufacturer). Plates with beads are incubated for 2 hours at room temperature (RT) on an orbital shaker in the dark. At the end of the incubation, plate(s) are washed twice in kit buffer, secondary biotinylated antibody is added at a 1:10 dilution (100 μL) in biotin diluent provided with the kit. Plates are incubated at RT for 1 hour in the dark then washed twice in kit buffer. Strepavidin in assay diluent is added at 100 μL per well, then incubated for 30 minutes at RT in the dark. The plates are washed 3 times then 100 μL of kit wash solution is added and agitated for 2-3 minutes at RT in the dark. Plates are run immediately following this incubation period on a Luminex xMAP 200 unit with data acquisition and analysis software (Invitrogen, San Diego, Calif., no. MAP0200). All bead washing is performed using a vacuum manifold unit (Pall, Ann Arbor, Mich. no. 5017). For all cytokine Luminex assays, values below the limit of detection set by the lowest point along the standard or set by the manufacturer are considered out of range and are not estimated, but assumed the lowest point along the standard curve for that particular assay.
# (§1) Mice are tracked on an individual basis.
# Vehicle alone is provided orally twice weekly (p.o.). Both proteasome inhibitors are suspended in the vehicle solution. […] In addition, urine proteinuria is determined for all animals.
# Vehicle was 3% DMSO/10% Solutol/87% PBS.
# [2] = system: MRL/lpr mice; assay: Serum C3 complement ELISA, MRL/lpr mice; assay type: in vivo, mouse
# Text: as §1
# [3] = system: MRL/lpr mice; assay: Antinuclear antibody (ANA) ELISA (anti-chromatin, anti-Smith Ag, anti-dsDNA IgG), serum of MRL/lpr mice; assay type: in vivo, mouse
# Text: For all ANA ELISA assays, values below the limit of detection set by the lowest point along the standard or set by the manufacturer are considered out of range and are not estimated, but assumed the lowest point along the standard curve for that particular assay.
# [4] = system: NZM mice; assay: Antibody secreting cell Elispot (anti-Smith, anti-dsDNA ASC), spleens of NZM mice (Example 3); assay type: in vivo, mouse
# Protocol: (§2) FIG. 49 depicts the frequency of anti-Smith antibody secreting cells in the spleens of NZM mice. NZM treated mice spleens were processed for splenocytes for ex vivo Elispot assays. Elispot wells were coated with 10 μg/mL of purified smith antigen or ovalbumin protein as a third party background control antigen. Fresh, whole splenocytes were added to each well at 500,000 cells per well in cell culture medium. Cells were incubated overnight at 37° C. Developed wells provided spots that were counted as frequency of ASCs per million splenocytes.
# as §2, with “50” for “49”, “anti-dsDNA” for “anti-Smith”, “bovine dsDNA” for “purified smith antigen”
# B-cell Elispot components are ordered from MabTech (Nacka Strand, Sweden) and nitrocellulose IP filter plates are ordered from Millipore (Billerica, Mass.). Elispot wells are coated with either purified bovine thymus dsDNA (Sigma), purified bovine Smith antigen (GenWay) or boiled filtered purified chicken chromatin from lysed chicken red blood cells (Rockland, Gilbertsville, Pa.) at 10 μg/mL. Spleens are processed using glass homogenization (frosted slides). Dispersed cell contents are washed in sterile HBSS and RBCs lysed using 1×RBC lysis buffer (BioLegend, Cat #420301). Processed splenocytes are added to each well and are not stimulated with lipopolysaccharide (LPS) to avoid skewing of true ex vivo frequencies of antibody-secreting cell types (ASCs). Anti-mouse pan-IgG is used as a positive control for total IgG producing ASCs and is used to normalize results. Frequencies for each antigen are identified in an initial test phase for each model. For chromatin and total IgG only, 30,000 splenocytes are added to each well; for Smith antigen and dsDNA, 500,000 cells are added to each well. Different numbers of splenocytes are added for different antigens due to saturation limits of spot frequencies per well. B-cell Elispots are incubated overnight at 37° C. To develop each assay, secondary antibody is added to each well, incubated, washed and alkaline phosphatase strepavidin (Jackson ImmunoResearch, West Grove, Pa.) is used as the conjugate; substrate used is BCIP-NBT (MabTech, Cincinnati, Ohio). Plates are developed until spots are visible. All Elispot analyses are performed using an Immunospot C.T.L. scanner and Biospot software (Cellular Technology Ltd., Shaker Heights, Ohio). Results are shown as values from which media and cells only wells are subtracted. Some values are negative due to high background.
# [5] = system: MRL/lpr mice; assay: Spleen plasma cells by flow cytometry, MRL/lpr mice
# [6] = system: 20S proteasome; assay: 20S proteasome activity in spleen (ex vivo fluorogenic assay), MRL/lpr mice; details: for PD EOS 20S proteasome, percent change vs vehicle: spleen
structure (smiles),measurement,setting,value
"CC(C)C[C@H](NC(=O)[C@@H](NC(=O)c1cccc(-c2ccccc2)n1)[C@@H](C)O)B(O)O [COMPOUND A, [(1R)-1-[[(2S,3R)-3-hydroxy-2-[6-phenyl-pyridine-2-carbonyl)amino]-1-oxobutyl]amino]-3-methylbutylboronic acid]",serum IL-1β by EOS,"[1]; 3 mg/kg twice weekly, vehicle 16.8 pg/mL",5.7 pg/mL
same,"Cytokine AUC serum IL-1β, percent change vs vehicle","[1]; G1: 3 mg/kg iv, 1× wk",−56%
same,"Cytokine AUC serum IL-12, percent change vs vehicle","[1]; G1: 3 mg/kg iv, 1× wk",−48%
same,"Cytokine AUC serum TNFα, percent change vs vehicle","[1]; G1: 3 mg/kg iv, 1× wk",−62%
same,"Cytokine AUC serum IL-1β, percent change vs vehicle","[1]; G2: 3 mg/kg iv, 2× wk",−61%
same,"Cytokine AUC serum IL-12, percent change vs vehicle","[1]; G2: 3 mg/kg iv, 2× wk",−72%
same,"Cytokine AUC serum TNFα, percent change vs vehicle","[1]; G2: 3 mg/kg iv, 2× wk",−79%
same,"Cytokine AUC serum IL-1β, percent change vs vehicle","[1]; G3: 10 mg/kg po, 2× wk",−58%
same,"Cytokine AUC serum IL-12, percent change vs vehicle","[1]; G3: 10 mg/kg po, 2× wk",−62%
same,"Cytokine AUC serum TNFα, percent change vs vehicle","[1]; G3: 10 mg/kg po, 2× wk",−71%
same,serum C3 concentration increase over vehicle,"[2]; treated orally, day 99",128%
same,"ANA AUC Smith Ag, percent change vs vehicle","[3]; G1: 3 mg/kg iv, 1× wk",−96%
same,"ANA AUC chromatin, percent change vs vehicle","[3]; G1: 3 mg/kg iv, 1× wk",−94%
same,"ANA AUC dsDNA, percent change vs vehicle","[3]; G1: 3 mg/kg iv, 1× wk",−91%
same,"ANA AUC Smith Ag, percent change vs vehicle","[3]; G2: 3 mg/kg iv, 2× wk",−96%
same,"ANA AUC chromatin, percent change vs vehicle","[3]; G2: 3 mg/kg iv, 2× wk",−94%
same,"ANA AUC dsDNA, percent change vs vehicle","[3]; G2: 3 mg/kg iv, 2× wk",−95%
same,"ANA AUC Smith Ag, percent change vs vehicle","[3]; G3: 10 mg/kg po, 2× wk",−94%
same,"ANA AUC chromatin, percent change vs vehicle","[3]; G3: 10 mg/kg po, 2× wk",−91%
same,"ANA AUC dsDNA, percent change vs vehicle","[3]; G3: 10 mg/kg po, 2× wk",−37%
same,anti-Smith Ag IgG ANA level decrease vs vehicle at EOS,[3]; Group 1,97%
same,anti-chromatin IgG level reduction vs vehicle,[3]; Group 1,89%
same,anti-dsDNA IgG ANA decrease vs vehicle,[3]; Group 1 (iv),80%
same,anti-Smith Ag IgG ANA level decrease vs vehicle at EOS,[3]; Group 2,100%
same,anti-chromatin IgG level reduction vs vehicle,[3]; Group 2,98%
same,anti-dsDNA IgG ANA decrease vs vehicle,[3]; Group 2 (iv),84%
same,anti-Smith Ag IgG ANA level decrease vs vehicle at EOS,[3]; Group 3,86%
same,anti-chromatin IgG level reduction vs vehicle,[3]; Group 3,79%
same,anti-sdDNA ASC decrease vs vehicle,[4]; Group 1 (regimen: Table 42),97.9%
same,anti-smith ASC decrease vs vehicle,[4]; Group 1 (regimen: Table 42),98.7%
same,anti-sdDNA ASC decrease vs vehicle,[4]; Group 2 (regimen: Table 42),96.4%
same,anti-smith ASC decrease vs vehicle,[4]; Group 2 (regimen: Table 42),96.6%
same,anti-sdDNA ASC decrease vs vehicle,[4]; Group 4 (regimen: Table 42),100.7%
same,anti-smith ASC decrease vs vehicle,[4]; Group 4 (regimen: Table 42),98.6%
same,anti-sdDNA ASC decrease vs vehicle,[4]; Group 5 (regimen: Table 42),95.9%
same,anti-smith ASC decrease vs vehicle,[4]; Group 5 (regimen: Table 42),97.6%
same,"EOS plasma cells, percent change vs vehicle","[5]; G1: 3 mg/kg iv, 1× wk",−67%
same,"EOS plasma cells, percent change vs vehicle","[5]; G2: 3 mg/kg iv, 2× wk",−67%
same,"EOS plasma cells, percent change vs vehicle","[5]; G3: 10 mg/kg po, 2× wk",−67%
same,spleen plasma cells decrease vs vehicle,[5]; Groups 1-3 (each),67%
same,spleen 20S proteasome function decrease vs vehicle,[6]; Group 1,40%
same,spleen 20S proteasome function decrease vs vehicle,[6]; Group 2,45%
same,spleen 20S proteasome function decrease vs vehicle,[6]; Group 3,41%
same,"PD EOS 20S proteasome, percent change vs vehicle","[6]; G1: 3 mg/kg iv, 1× wk",−40%
same,"PD EOS 20S proteasome, percent change vs vehicle","[6]; G2: 3 mg/kg iv, 2× wk",−45%
same,"PD EOS 20S proteasome, percent change vs vehicle","[6]; G3: 10 mg/kg po, 2× wk",−41%
"CC(C)C[C@H](NC(=O)[C@H](Cc1ccccc1)NC(=O)c1cnccn1)B(O)O [bortezomib, reference compound]","Cytokine AUC serum IL-1β, percent change vs vehicle","[1]; G4: 0.5 mg/kg iv, 1× wk",−46%
same,"Cytokine AUC serum IL-12, percent change vs vehicle","[1]; G4: 0.5 mg/kg iv, 1× wk",−54%
same,"Cytokine AUC serum TNFα, percent change vs vehicle","[1]; G4: 0.5 mg/kg iv, 1× wk",−64%
same,"Cytokine AUC serum IL-1β, percent change vs vehicle","[1]; G5: 0.3 mg/kg iv, 2× wk",−51%
same,"Cytokine AUC serum IL-12, percent change vs vehicle","[1]; G5: 0.3 mg/kg iv, 2× wk",−54%
same,"Cytokine AUC serum TNFα, percent change vs vehicle","[1]; G5: 0.3 mg/kg iv, 2× wk",−71%
same,serum C3 relative to vehicle,[2]; bortezomib treatment groups,did not exhibit a significant increase in serum C3
same,"ANA AUC Smith Ag, percent change vs vehicle","[3]; G4: 0.5 mg/kg iv, 1× wk",−84%
same,"ANA AUC chromatin, percent change vs vehicle","[3]; G4: 0.5 mg/kg iv, 1× wk",−82%
same,"ANA AUC dsDNA, percent change vs vehicle","[3]; G4: 0.5 mg/kg iv, 1× wk",−88%
same,"ANA AUC Smith Ag, percent change vs vehicle","[3]; G5: 0.3 mg/kg iv, 2× wk",−58%
same,"ANA AUC chromatin, percent change vs vehicle","[3]; G5: 0.3 mg/kg iv, 2× wk",−58%
same,"ANA AUC dsDNA, percent change vs vehicle","[3]; G5: 0.3 mg/kg iv, 2× wk",−76%
same,anti-Smith Ag IgG ANA level decrease vs vehicle at EOS,[3]; Group 4,74%
same,anti-dsDNA IgG ANA decrease vs vehicle,[3]; Group 4 (iv),82%
same,anti-dsDNA IgG ANA decrease vs vehicle,[3]; Group 5 (iv),58%
same,anti-chromatin IgG level decrease vs vehicle,[3]; weekly bortezomib dose,64%
same,anti-dsDNA ASC decrease vs vehicle,"[4]; Group 7, ip",64.7%
same,anti-smith ASC decrease vs vehicle,"[4]; Group 7, ip",46.3%
same,anti-dsDNA ASC decrease vs vehicle,"[4]; Group 8, sc",88.9%
same,anti-smith ASC decrease vs vehicle,"[4]; Group 8, sc",82.4%
same,"EOS plasma cells, percent change vs vehicle","[5]; G4: 0.5 mg/kg iv, 1× wk",−67%
same,"EOS plasma cells, percent change vs vehicle","[5]; G5: 0.3 mg/kg iv, 2× wk",−33%
same,spleen plasma cells decrease vs vehicle,[5]; Group 4,66%
same,spleen plasma cells decrease vs vehicle,[5]; Group 5,33%
same,spleen 20S proteasome function decrease vs vehicle,[6]; Group 4,40%
same,spleen 20S proteasome function decrease vs vehicle,[6]; Group 5,41%
same,"PD EOS 20S proteasome, percent change vs vehicle","[6]; G4: 0.5 mg/kg iv, 1× wk",−40%
same,"PD EOS 20S proteasome, percent change vs vehicle","[6]; G5: 0.3 mg/kg iv, 2× wk",−41%
"C[C@@H]1C[C@H]2[C@@H]3CCC4=CC(=O)C=C[C@]4(C)[C@@]3(F)[C@@H](O)C[C@]2(C)[C@@]1(O)C(=O)CO [dexamethasone, Dexamethasone, reference compound]","Cytokine AUC serum IL-1β, percent change vs vehicle","[1]; G6: 1.5 mg/kg ip, 3× wk",−44%
same,"Cytokine AUC serum IL-12, percent change vs vehicle","[1]; G6: 1.5 mg/kg ip, 3× wk",−74%
same,"Cytokine AUC serum TNFα, percent change vs vehicle","[1]; G6: 1.5 mg/kg ip, 3× wk",−87%
same,"ANA AUC Smith Ag, percent change vs vehicle","[3]; G6: 1.5 mg/kg ip, 3× wk",−45%
same,"ANA AUC chromatin, percent change vs vehicle","[3]; G6: 1.5 mg/kg ip, 3× wk",−47%
same,"ANA AUC dsDNA, percent change vs vehicle","[3]; G6: 1.5 mg/kg ip, 3× wk",−59%
same,"EOS plasma cells, percent change vs vehicle","[5]; G6: 1.5 mg/kg ip, 3× wk",+25%
